Data set [1] in a line: Excitation and fluorescence emission wavelength measurement. It counts as physicochemical. Details: Stokes shift (λem − λex): unit not given here. The note with it: aqueous solution: 10 mg/mL solution in DMSO diluted 500-fold with purified water. The protocol:
It should be noted that the excitation wavelength and the fluorescence emission wavelength of the staining compound were determined by measuring an aqueous solution, which had been obtained by diluting 500-fold a 10 mg/mL solution of the staining compound in DMSO with purified water, with a fluorescence spectrophotometer FL 4500 manufactured by Hitachi High-Technologies Corporation.

The nature of data set [2]: Storage stability of staining compound solution in DMSO. It counts as physicochemical. The note with it: 10 ng/mL in DMSO, closed glass container, normal temperature, 1 month; rate of change of absorbance and fluorescence intensity. The protocol:
A 10 ng/mL solution of each of the staining compounds of Labelled Examples 1 to 78 and Labelled Comparative Examples 1 and 2 in DMSO was prepared, charged into a well-closed container made of glass, and left to stand still at normal temperature for 1 month. The absorbance and the fluorescence intensity at the time of the start of a storage stability test were measured at a given wavelength, and their rates of change were examined (+++: rates of change of the absorbance and the fluorescence intensity are less than 5%, and thus, the storage stability is highly excellent; ++: rates of change of the absorbance and fluorescence intensity are 5 to 15%, and thus, the storage stability is excellent; and −: rates of change of the absorbance and fluorescence intensity are more than 15%, and thus, the storage stability is poor).

For another data set, the system named is Zebrafish juveniles. Nature of the data set: In vivo labelling of Zebrafish juveniles with probe for biological specimen. Further details: key to Staining property: +++: stained; −: no stained; key to Fluorescence sensitivity: +++: strongly observed; ++: moderately observed; +: weakly observed; −: no stained. The note with it: 1 hour; for Site(s) to be labelled: 10 ng/mL in water, stereoscopic microscope; for Fluorescence sensitivity / Staining property: 10 ng/mL; for Fluorescence sensitivity: fluorescence intensity visually evaluated; for Staining property: visually evaluated. The procedure:
Five juveniles of Zebrafish were put into one well of a well plate together with rearing water. After rearing water had been discharged, 1 mL of distilled water was added to the well, and a solution of a staining compound (1) in DMSO was further added thereto so as to achieve a concentration of 10 ng/mL, followed by gentle stirring (pipetting). Further, Egg Water was prepared by dissolving artificial seawater SEALIFE (manufactured by Marinetech Co., Ltd.) in distilled water at a concentration of 60 mg/L. After the whole had been left to stand for 1 hour, distilled water in the well was discharged and replaced by 1 mL of fresh Egg Water. In addition, such an operation that Egg Water was discharged and replaced by 1 mL of fresh Egg Water was repeated twice. One of the juveniles was taken out from the well onto a dish, supplemented with 100 μL of a 3% methylcellulose aqueous solution to fix the movement of the juvenile, and photographed with a stereoscopic microscope (MZ10F: manufactured by Leica Microsystems K.K.).
The same operation as that in Example 1 was performed except that the staining compound (1) used in Example 1 was changed to any one of the staining compounds described in Table 1.
The same operation as that in Example 1 was performed except that the staining compound (1) used in Example 1 was changed to any one of indocyanine green (ICG) and fluorescein.
The staining property of each of the staining compounds of Labelled Examples 1 to 78 and Labelled Comparative Examples 1 and 2 was visually evaluated (+++: stained and −: no stained).
The fluorescence intensity of each of the staining compounds of Labelled Examples 1 to 78 and Labelled Comparative Examples 1 and 2 was visually evaluated (+++: strongly observed, ++: moderately observed, +: weakly observed, and −: no stained).

The values below come from patent publication US9801960B2, “Probe for a biological specimen and labelling method and screening method using the probe” (CANON KABUSHIKI KAISHA, priority 2008, dated 2017).

For the molecule `COc1cc(/C=C2\C(=O)ON=C2c2ccccc2)cc2c1N(c1ccccc1)C1CCCC21` (stereo not shown) [Dye 34], in data set [1], the Excitation wavelength λex turned out to be 570 nm, the Fluorescence emission wavelength λem amounted to 657 nm and the “Stokes shift (λem − λex)” value stood at 87. Further, in data set [2], the Storage stability result is “+++ (rates of change of the absorbance and the fluorescence intensity are less than 5%, and thus, the storage stability is highly excellent)”. In the data set with Zebrafish juveniles, the “Site(s) to be labelled” value is “nose”, the Fluorescence sensitivity entry is recorded as “+++” and the Staining property result is recorded as “+++”.
In the case of `COc1ccc(N2c3ccc(/C=C4\C(=O)N(c5ccc(C(=O)O)cc5)N=C4C)cc3C3CCCC32)cc1` (stereo not shown) [Dye 54], in data set [1], the Excitation wavelength λex turned out to be 610 nm, the Fluorescence emission wavelength λem amounted to 633 nm and the “Stokes shift (λem − λex)” value was determined as 23. Also, the Storage stability entry in data set [2] is “+++ (rates of change of the absorbance and the fluorescence intensity are less than 5%, and thus, the storage stability is highly excellent)”. For the same molecule, in the data set with Zebrafish juveniles, the “Site(s) to be labelled” value is “gastrointestinal tract and nose”; the Fluorescence sensitivity result is on record as “++”; the Staining property entry is on record as “+++”.
For the molecule `CCN1c2ccc(/C=C3/SC(=S)N(CCC(=O)O)C3=O)cc2C2CCCC21` (stereo not shown) [Dye 123], in data set [1], the Excitation wavelength λex was 564 nm, the Fluorescence emission wavelength λem stood at 651 nm and the “Stokes shift (λem − λex)” value was 87. Moreover, the Storage stability result in data set [2] is “+++ (rates of change of the absorbance and the fluorescence intensity are less than 5%, and thus, the storage stability is highly excellent)”. For the same molecule, in the data set on Zebrafish juveniles, the “Site(s) to be labelled” value is “gallbladder and gastrointestinal tract”; the Fluorescence sensitivity entry is recorded as “+++”; the Staining property entry is “+++”.
For `N#C/C(=C\c1ccc2c(c1)C1CCCC1N2c1ccc(C=C(c2ccccc2)c2ccccc2)cc1)C(=O)O` (stereo not shown) [Dye 7], in data set [1], the Excitation wavelength λex turned out to be 498 nm, the Fluorescence emission wavelength λem was 601 nm and the “Stokes shift (λem − λex)” value came out at 103. Besides, in data set [2], the Storage stability result is “+++ (rates of change of the absorbance and the fluorescence intensity are less than 5%, and thus, the storage stability is highly excellent)”. Further, in the data set on Zebrafish juveniles, the “Site(s) to be labelled” value was “blood vessel and liver”; the Fluorescence sensitivity entry was “+++”; the Staining property entry is “+++”.
Regarding `COc1ccc(N2c3ccc(/C=C(\C#N)C(=O)O)cc3C3CCCC32)cc1` (stereo not shown) [Dye 56], in data set [1], the Excitation wavelength λex was 437 nm, the Fluorescence emission wavelength λem was 585 nm and the “Stokes shift (λem − λex)” value was determined as 148. In addition, in data set [2], the Storage stability result was “+++ (rates of change of the absorbance and the fluorescence intensity are less than 5%, and thus, the storage stability is highly excellent)”. In the data set with Zebrafish juveniles, the “Site(s) to be labelled” value is “liver, gallbladder, and gastrointestinal tract”; the Fluorescence sensitivity entry is recorded as “+++”; the Staining property entry is on record as “+++”.
Take `CCN1C(=O)/C(=c2\s/c(=C/c3ccc4c(c3)C3CCCC3N4c3ccc(OC)cc3)c(=O)n2CC)SC1=S` (stereo not shown) [Dye 68]: in data set [1], the Excitation wavelength λex came out at 602 nm, the Fluorescence emission wavelength λem amounted to 667 nm and the “Stokes shift (λem − λex)” value is listed as 65. Also, in data set [2], the Storage stability result is “+++ (rates of change of the absorbance and the fluorescence intensity are less than 5%, and thus, the storage stability is highly excellent)”. In addition, in the data set with Zebrafish juveniles, the “Site(s) to be labelled” value is “gastrointestinal tract”, the Fluorescence sensitivity entry was “+++” and the Staining property result is on record as “+++”.
Take `O=C1/C(=C/c2ccc3c(c2)C2CCCC2N3c2ccccc2)Oc2ccc(I)cc21` (stereo not shown) [Dye 141]: in data set [1], the Excitation wavelength λex is 380 nm, the Fluorescence emission wavelength λem was 490 nm and the “Stokes shift (λem − λex)” value came to 110. Further, the Storage stability entry in data set [2] is “+++ (rates of change of the absorbance and the fluorescence intensity are less than 5%, and thus, the storage stability is highly excellent)”. Also, in the data set with Zebrafish juveniles, the “Site(s) to be labelled” value is “gastrointestinal tract”, the Fluorescence sensitivity result was “+++” and the Staining property result was “+++”.
As for `CSc1ccc(N2c3ccc(/C=C4/SC(=S)N(CC(=O)O)C4=O)cc3C3CCCC32)cc1` (stereo not shown) [Dye 17], in data set [1], the Excitation wavelength λex was 527 nm, the Fluorescence emission wavelength λem is 636 nm and the “Stokes shift (λem − λex)” value worked out at 109. In data set [2], the Storage stability entry was “+++ (rates of change of the absorbance and the fluorescence intensity are less than 5%, and thus, the storage stability is highly excellent)”. Further, in the data set with Zebrafish juveniles, the “Site(s) to be labelled” value is “blood vessel, liver, and gastrointestinal tract”; the Fluorescence sensitivity result is reported as “+++”; the Staining property entry is recorded as “+++”.
Take `O=C(O)C1=NN(c2ccccc2)C(=O)/C1=C\c1ccc2c(c1)C1CCCC1N2c1ccc(C=C(c2ccccc2)c2ccccc2)cc1` (stereo not shown) [Dye 51]: in data set [1], the Excitation wavelength λex is 582 nm, the Fluorescence emission wavelength λem is 670 nm and the “Stokes shift (λem − λex)” value was 88. Moreover, the Storage stability result in data set [2] is “++ (rates of change of the absorbance and fluorescence intensity are 5 to 15%, and thus, the storage stability is excellent)”. Further, in the data set with Zebrafish juveniles, the “Site(s) to be labelled” value is “gallbladder and gastrointestinal tract”; the Fluorescence sensitivity result was “+”; the Staining property entry was “+++”.
In the case of `CCN1C(=O)/C(=c2\s/c(=C/c3ccc4c(c3)C3CCCC3N4c3cccc(SC)c3)c(=O)n2CC(=O)O)SC1=S` (stereo not shown) [Dye 138], in data set [1], the Excitation wavelength λex was 540 nm, the Fluorescence emission wavelength λem was 690 nm and the “Stokes shift (λem − λex)” value was 150. Moreover, the Storage stability entry in data set [2] is “+++ (rates of change of the absorbance and the fluorescence intensity are less than 5%, and thus, the storage stability is highly excellent)”. In the data set on Zebrafish juveniles, the “Site(s) to be labelled” value was “gastrointestinal tract”, the Fluorescence sensitivity result was “+++” and the Staining property entry is given as “+++”.
Take `COc1ccc2cc(N3c4ccc(/C=C/c5sc6ccccc6[n+]5CC(=O)O)cc4C4CCCC43)ccc2c1` (stereo not shown) [Dye 45]: in data set [1], the Excitation wavelength λex turned out to be 401 nm, the Fluorescence emission wavelength λem turned out to be 516 nm and the “Stokes shift (λem − λex)” value was determined as 115. Moreover, the Storage stability entry in data set [2] was “+++ (rates of change of the absorbance and the fluorescence intensity are less than 5%, and thus, the storage stability is highly excellent)”. In the data set on Zebrafish juveniles, the “Site(s) to be labelled” value was “nose”, the Fluorescence sensitivity result was “+++” and the Staining property entry is reported as “+++”.
Turning to `CCN1C(=O)/C(=c2\s/c(=C/c3cc(Br)c4c(c3)C3CCCC3N4c3ccc(Br)cc3)c(=O)n2CC(=O)O)SC1=S` (stereo not shown) [Dye 59], in data set [1], the Excitation wavelength λex amounted to 559 nm, the Fluorescence emission wavelength λem is 671 nm and the “Stokes shift (λem − λex)” value was 112. Moreover, the Storage stability result in data set [2] is “+++ (rates of change of the absorbance and the fluorescence intensity are less than 5%, and thus, the storage stability is highly excellent)”. Besides, in the data set on Zebrafish juveniles, the “Site(s) to be labelled” value was “blood vessel, nose, and gastrointestinal tract”; the Fluorescence sensitivity entry is recorded as “+++”; the Staining property entry is listed as “+++”.
In the case of `COc1ccc(N2c3ccc(/C=C4\C(=O)N(c5ccccc5)N=C4C(=O)O)cc3C3CCCC32)cc1` (stereo not shown) [Dye 128], in data set [1], the Excitation wavelength λex is 530 nm, the Fluorescence emission wavelength λem is 690 nm and the “Stokes shift (λem − λex)” value is reported as 160. In addition, the Storage stability result in data set [2] is “+++ (rates of change of the absorbance and the fluorescence intensity are less than 5%, and thus, the storage stability is highly excellent)”. In the data set with Zebrafish juveniles, the “Site(s) to be labelled” value is “blood vessel, liver, and gastrointestinal tract”; the Fluorescence sensitivity entry is on record as “++”; the Staining property result is “+++”.
As to `O=C1OC2(c3ccc(O)cc3Oc3cc(O)ccc32)c2ccccc21` [fluorescein, reference compound], the Storage stability entry in data set [2] was “++ (rates of change of the absorbance and fluorescence intensity are 5 to 15%, and thus, the storage stability is excellent)”. Besides, in the data set with Zebrafish juveniles, the Fluorescence sensitivity entry was “++” and the Staining property result is “+++”.
